Experimental data reported in ChEMBL document CHEMBL1764955, “The synthesis and evaluation of indolylureas as PKCα inhibitors” (Bioorg Med Chem, 2011).

What was measured:
[1] = target: Protein kinase C alpha type (Homo sapiens, UniProt P17252); test: Inhibition of human PKCalpha activity using neurogranin as a substrate in presence of 50 uM ATP by mass spectrometry
[2] = target: cAMP-dependent protein kinase catalytic subunit beta (Homo sapiens, UniProt P22694); test: Inhibition of PKA activity using kemptide as a substrate in presence of 50 uM ATP by mass spectrometry

IC50 [1] [µM] | IC50 [2] [µM] | SMILES
0.095 | 23.6 | CN(C)CCCn1cc(NC(=O)Nc2nccc(-c3ccccc3)n2)c2ccccc21
2.68 |  | CCN(CC)CCCn1cc(NC(=O)Nc2cccc(-c3ccccc3)n2)c2ccccc21
4.81 |  | CCN(CC)CCCn1cc(NC(=O)Nc2ccnc(-c3ccccc3)n2)c2ccccc21
8.07 |  | CCN(CC)CCCn1cc(NC(=O)Nc2cncc(-c3ccccc3)n2)c2ccccc21
